Values quoted from earlier work, collected in Sander's compilation of Henry's law constants (doi:10.1080/00022470.1982.10465374).

Test: Henry solubility constant Hcp at 298.15 K (mol/(m3 Pa))
Settings: reference: Shen (1982); cited value

SMILES | Henry solubility constant Hcp
ClC1=C(Cl)C2(Cl)C3C4OC4C(Cl)C3C1(Cl)C2(Cl)Cl (centres undefined) [heptachlorepoxide] | 0.31
c1ccc2c(c1)Cc1ccccc1-2 [2,3-benzindene] | 0.084
O=[N+]([O-])c1ccccc1 [nitrobenzene] | 0.41
ClC1=C(Cl)C2(Cl)C3C(Cl)C=CC3C1(Cl)C2(Cl)Cl (centres undefined) [heptachlor] | 0.0067
ClC(Cl)Br [bromodichloromethane] | 0.0047
c1cc2c3c(cccc3c1)CC2 [acenaphthene] | 0.041
Clc1ccc(Cl)cc1 [1,4-dichlorobenzene] | 0.0036
ClC1=C(Cl)[C@]2(Cl)[C@@H]3[C@@H]4C[C@@H]([C@H]5O[C@@H]45)[C@@H]3[C@@]1(Cl)C2(Cl)Cl [dieldrin] | 0.17
ClC(Cl)=C(Cl)Cl [tetrachloroethene] | 0.00034
ClC1=C(Cl)C(Cl)(Cl)C(Cl)=C1Cl [hexachlorocyclopentadiene] | 0.0006
ClC1=C(Cl)[C@]2(Cl)[C@H]3[C@H]([C@@H]4C=C[C@H]3C4)[C@@]1(Cl)C2(Cl)Cl [aldrin] | 0.02
Clc1ccccc1 [chlorobenzene] | 0.0025
Clc1cccc(Cl)c1 [1,3-dichlorobenzene] | 0.0038
CCc1ccccc1 [ethylbenzene] | 0.0015
C=C(Cl)Cl [1,1-dichloroethene] | 0.00066
Cc1ccccc1 [methylbenzene] | 0.0017
ClC(Br)Br [dibromochloromethane] | 0.013
CC(Cl)(Cl)Cl [1,1,1-trichloroethane] | 0.002
ClC=C(Cl)Cl [trichloroethene] | 0.00084
ClC(Cl)=C(Cl)C(Cl)=C(Cl)Cl [hexachlorobutadiene] | 0.00096
ClC=CCCl [1,3-dichloropropene] | 0.0028
ClC(Cl)(Cl)C(Cl)(Cl)Cl [hexachloroethane] | 0.001
CC(Cl)CCl (centres undefined) [1,2-dichloropropane] | 0.0035
ClC1=C(Cl)[C@]2(Cl)C3C(Cl)C(Cl)CC3[C@@]1(Cl)C2(Cl)Cl (some centres undefined) [chlordane] | 0.21
c1ccccc1 [benzene] | 0.0018
BrC(Br)Br [tribromomethane] | 0.019
C1=Cc2cccc3cccc1c23 [acenaphthylene] | 0.087
ClCCl [dichloromethane] | 0.0031
ClC(Cl)(Cl)Cl [tetrachloromethane] | 0.00033
